Common to all, as to format: in vivo, mouse
One assay concerns MerCreMer/ZEG (M/Z) mice. Nature of the assay: Echocardiography after myocardial infarction (ejection fraction). The settings on record: echocardiography at one and two months post-infarction. As for the experimental part: M/Z mice were subjected to experimental myocardial infarction (MI) one month after the last tamoxifen injection. MI was generated by ligating the left anterior descending coronary artery at 2-3 mm distal to the left atrial appendage. For cell transplantation experiments, intramyocardial injections were performed immediately after coronary ligation. A total of 6×10^5 cardiac Sca-1^+ cells were injected per mouse in two divided injections (5 μl/injection). For BrdU labeling, the mice were subcutaneously implanted with osmotic minipump (Alzet) at the time of surgery and 40 μg/μl of BrdU (Sigma) was administrated. For immunohistological studies, mice were sacrificed and the hearts were harvested at different time points following experimental MI surgery. Cardiac performances were assessed by echocardiography at 28 and 56 days after operation using Vevo 770 (Visualsonics, Toronto, Canada).
To induce Cre recombination to achieve GFP labeling of cardiomyocytes, tamoxifen (Sigma) was dissolved in sunflower oil (Sigma) at a concentration of 5 mg/ml. The tamoxifen solution was injected intraperitoneally into M/Z mice daily at a dosage of 40 μg per 1 g body weight for 14 days, and the same dosage was injected twice daily for short-term labeling using methods known in the art (Laugwitz, K.-L. et al. Nature 433, 647-653 (2005)). […]

Another assay relates to Sca-1. Nature of the assay: Quantitative RT-PCR of Sca-1 in infarct zone of MI heart. The settings on record: day 3 post-MI. As for the experimental part:
(§1) To induce Cre recombination to achieve GFP labeling of cardiomyocytes, tamoxifen (Sigma) was dissolved in sunflower oil (Sigma) at a concentration of 5 mg/ml. The tamoxifen solution was injected intraperitoneally into M/Z mice daily at a dosage of 40 μg per 1 g body weight for 14 days, and the same dosage was injected twice daily for short-term labeling using methods known in the art (Laugwitz, K.-L. et al. Nature 433, 647-653 (2005)). All experimental conditions were optimized prior to the PGE2, indomethacin and TGF-β Type I Receptor Kinase Inhibitor II (ALK5 Inhibitor II, ALK5i, Merck) treatments. The mice treated with PGE2 or PGI2 (Vegiopoulos, A. et al. Science 328, 1158-1161 (2010)) (both from Sigma) were injected intraperitoneally with 3.33 ng of drug per 1 g of body weight dissolved in absolute ethanol twice daily. For the indomethacin treatment, mice were fed with water containing indomethacin (Sigma, 15 μg/ml) for different periods of time. The indomethacin-containing water was changed every 3 days. The mice subjected to the celecoxib (Lyons, T. R. et al. Nat. Med. 17, 1109-1115 (2011)) (Sigma) treatment were injected intraperitoneally with 5 μg of drug per 1 g of body weight daily. For ALK5i treatment, aged mice were injected intraperitoneally once per day with 1 μg of drug per 1 g of body weight one day before surgery and continuously until day 10 post-MI. Celecoxib and ALK5i were dissolved in ethanol and DMSO, respectively.
(§2) The total RNA isolated from the ischemic region or remote area of MI hearts was reverse transcribed using the SuperScript III (Invitrogen) system according to the manufacturer's protocol. For quantitative PCR, the SYBR Green reagent (Maestrogen) was used according to the manufacturer's protocol. The analysis of relative gene expression was performed using the 2̂[−delta delta Ct] method and sequence-specific primers designed for semi-quantitative PCR and real-time RT-PCR (FIG. 11).

A further assay has as its system interleukin-10 (IL-10). Kind of assay: Quantitative RT-PCR of IL-10 at injured region. The settings on record: both young and old mice; day 3 after infarction. As for the experimental part:
To induce Cre recombination to achieve GFP labeling of cardiomyocytes, tamoxifen (Sigma) was dissolved in sunflower oil (Sigma) at a concentration of 5 mg/ml. The tamoxifen solution was injected intraperitoneally into M/Z mice daily at a dosage of 40 μg per 1 g body weight for 14 days, and the same dosage was injected twice daily for short-term labeling using methods known in the art (Laugwitz, K.-L. et al. Nature 433, 647-653 (2005)). All experimental conditions were optimized prior to the PGE2, indomethacin and TGF-β Type I Receptor Kinase Inhibitor II (ALK5 Inhibitor II, ALK5i, Merck) treatments. The mice treated with PGE2 or PGI2 (Vegiopoulos, A. et al. Science 328, 1158-1161 (2010)) (both from Sigma) were injected intraperitoneally with 3.33 ng of drug per 1 g of body weight dissolved in absolute ethanol twice daily. […]
as §2

In the next assay the test system is Sca-1+ cells. Nature of the assay: Flow cytometry of Sca-1+/GFP+ cardiac small cells on day 3 post-MI. The settings on record: tamoxifen 80 μg/g per day for 3 days, P<0.001. As for the experimental part: as §1, with “Celecoxib and ALK5i were dissolved in ethanol and DMSO, respectively.” left out
(In general: A flow cytometer gives signals particle by particle.)

The text below walks through data of patent publication US20130331389A1, “Methods and Compositions for Cardiomyocyte Replenishment by Endogenous and Progenitor Stem Cells” (NATIONAL CHENG KUNG UNIVERSITY, priority 2012, published 2013).

On to `CCCCC[C@H](O)/C=C/C1C(O)CC(=O)C1C/C=C\CCCC(=O)O` (stereo partly drawn) [PGE2, (5Z,11α,13E,15S)-7-[3-hydroxy-2-(3-hydroxyoct-1-enyl)-5-oxo-cyclopentyl]hept-5-enoic acid], for which, in the assay on MerCreMer/ZEG (M/Z) mice, the “cardiac function post-MI” value is on record as “improved”. The results for the Sca-1 expression entry with Sca-1 (aged animals) and in the assay with Sca-1 (young mice) were “restored Sca-1 expression to levels similar to those in young mice” and “further increased”, respectively. Besides, in the assay on interleukin-10 (IL-10), the “expression of interleukin-10 (IL-10)” value is listed as “enhanced”. Further, the “number of Sca-1+/GFP+ cells” value in the assay on Sca-1+ cells is reported as “expanding”.
